Measurements from patent US20150239889A1, “PYRAZOLOPYRIMIDINE COMPOUND” (MITSUBISHI TANABE PHARMA CORPORATION, priority 2012, published 2015).

Assays:
[1] = molecular target: T1, human HIF-PHD2 (Homo sapiens, UniProt Q9GZT9); experiment: HIF-PHD inhibition assay (fluorescence polarization), human HIF-PHD2; type: biochemical; conditions: 2-oxoglutaric acid 3.33 μmol/L
T1 construct: purchased CrystalGenomics Ltd
Summary of the method: (§1)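 Compounds tested for enzyme inhibition by fluorescence polarization. Subtracting the reading taken before enzyme addition from the post-addition reading gave activity in mP.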

[2] = molecular target: T2, human HIF-PHD3 (Homo sapiens, UniProt Q9H6Z9); experiment: HIF-PHD inhibition assay (fluorescence polarization), human HIF-PHD3; type: biochemical; conditions: 2-oxoglutaric acid 166 μmol/L
T2 construct: purchased CrystalGenomics Ltd
T2 sequence (Q9H6Z9 whole entry): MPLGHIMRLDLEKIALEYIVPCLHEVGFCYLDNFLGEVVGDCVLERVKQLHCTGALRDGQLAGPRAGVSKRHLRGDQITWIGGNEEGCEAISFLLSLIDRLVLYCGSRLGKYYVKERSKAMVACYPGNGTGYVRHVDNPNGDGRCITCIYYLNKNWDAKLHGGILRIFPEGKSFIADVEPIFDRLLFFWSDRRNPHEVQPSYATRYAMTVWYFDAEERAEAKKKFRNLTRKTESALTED
Summary of the method: as §1

[3] = test system: Hep3B cells; experiment: EPO production assay (ELISA of culture supernatant); type: cell-based; conditions: Homo sapiens, 3 μmol/L test compound, 48 hours, relative to control (0.1% DMSO), read-out: EPO production stimulation rate with 3 μmol/L test compound
Experimental: The stimulatory effect of the compound onEPO production was determined as follows using Hep3B cells.
Cells were seeded on 96 well plates at 40000 cells/well, and the plate was incubated overnight in MEM medium containing 10% fetal bovine serum (FBS) at 37° C. under 5% CO2. The next day, the medium was replaced with MEM containing 0.5% FBS, followed by addition of test compound. The test compound was dissolved in dimethyl sulfoxide and added to the cell so that the final concentration of dimethyl sulfoxide was 0.1%. After incubation for additional 48 hours, the culture supernatant was collected, and EPO contained in the supernatant was determined using ELISA kit (EPO ELISA Kit 11-693-417-001, Roche Co.). The results were expressed as stimulation rate of EPO production (fold), which was calculated as the relative value of the EPO production with 3 μmol/L of the test compound compared to the EPO production without stimulation (control).
Stimulation rate of EPO production (fold)=(EPO production with addition of test compound)/(EPO production of control)

T1 sequence (Q9GZT9 2-426 limits assumed): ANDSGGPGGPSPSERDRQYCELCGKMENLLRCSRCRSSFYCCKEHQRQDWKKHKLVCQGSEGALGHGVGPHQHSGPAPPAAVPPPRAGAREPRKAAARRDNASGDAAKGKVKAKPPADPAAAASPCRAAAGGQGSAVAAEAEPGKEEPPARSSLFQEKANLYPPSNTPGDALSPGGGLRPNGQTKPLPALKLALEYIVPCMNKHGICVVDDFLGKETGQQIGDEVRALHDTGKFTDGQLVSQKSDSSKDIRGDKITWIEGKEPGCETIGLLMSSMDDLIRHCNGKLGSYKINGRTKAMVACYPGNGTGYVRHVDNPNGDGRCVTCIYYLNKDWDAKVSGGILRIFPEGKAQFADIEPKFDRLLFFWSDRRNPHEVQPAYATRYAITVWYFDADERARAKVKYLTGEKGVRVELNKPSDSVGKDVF

SMILES | IC50 [1] | IC50 [2] | fold induction at 3 µM [3]
Cc1nn(C[C@H]2CC[C@H](C(F)(F)F)CC2)c2c(O)nc(-n3cc(C(=O)O)cn3)nc12 [Example 474] | 30 nM | 190 nM | 2.8
O=C(O)c1cnn(-c2nc(O)c3c(cnn3CCc3ccc(Cl)c(Cl)c3)n2)c1 [Example 115] | 24 nM | 220 nM | 5.1
O=C(O)c1cnn(-c2nc(O)c3c(n2)c(F)nn3CCC2CCCCC2)c1 [Example 472] | 17 nM | 350 nM | 2.4
Cc1ccc(-c2ccc(Cn3ncc4nc(-n5cc(C(=O)O)cn5)nc(O)c43)cc2)c(C)c1 [Example 70] | 11 nM | 110 nM | 24
Cc1cccc(C)c1-c1cccc(Cn2ncc3nc(-n4cc(C(=O)O)cn4)nc(O)c32)c1 [Example 48] | 70 nM | 340 nM | 6.6
CC(C)(COc1ccc(Cl)cc1)Cn1ncc2nc(-n3cc(C(=O)O)cn3)nc(O)c21 [Example 197] | 190 nM | 760 nM | 5.8
O=C(O)c1cnn(-c2nc(O)c3c(cnn3Cc3cccc(-c4cccc(F)c4)c3)n2)c1 [Example 44] | 49 nM | 390 nM | 4.9
O=C(O)c1cnn(-c2nc(O)c3c(cnn3Cc3ccc(F)c(Br)c3)n2)c1 [Example 14] | 31 nM | 280 nM | 1.4
O=C(O)c1cnn(-c2nc(O)c3c(cnn3C[C@H]3CC[C@H](Oc4cccc(F)c4)CC3)n2)c1 [Example 148] | 10 nM | 250 nM | 11
O=C(O)c1cnn(-c2nc(O)c3c(cnn3Cc3ccc(-c4ccccc4F)cc3F)n2)c1 [Example 80] | 8.9 nM | 42 nM | 9.5
Cc1ccc(Cn2ncc3nc(-n4cc(C(=O)O)cn4)nc(O)c32)cc1-c1ccccc1 [Example 53] | 25 nM | 410 nM | 3.3
O=C(O)c1cnn(-c2nc(O)c3c(cnn3CC3CCC4(CCC4)CC3)n2)c1 [Example 379] | 16 nM | 200 nM | 10
COc1cc(Cn2ncc3nc(-n4cc(C(=O)O)cn4)nc(O)c32)ccc1-c1c(F)cccc1F [Example 97] | 34 nM | 300 nM | 5.2
CC(C)(Cn1ncc2nc(-n3cc(C(=O)O)cn3)nc(O)c21)Oc1ccccc1Cl [Example 209] | 33 nM | 230 nM | 2.2
CCCC(CCC)Cn1ncc2nc(-n3cc(C(=O)O)cn3)nc(O)c21 [Example 495] | 68 nM | 500 nM | 18
O=C(O)c1cnn(-c2nc(O)c3c(cnn3Cc3ccc(Cl)c(F)c3)n2)c1 [Example 7] | 23 nM | 320 nM | 3.4
CC(C)(Cn1ncc2nc(-n3cc(C(=O)O)cn3)nc(O)c21)Oc1ccc2ccccc2c1 [Example 213] | 17 nM | 110 nM | 6.4
Cc1nn(CCC2CCCC2)c2c(O)nc(-n3cc(C(=O)O)cn3)nc12 [Example 476] | 36 nM | 570 nM | 2.7
C[C@@H](c1ccc(C(F)(F)F)cc1)n1nc(F)c2nc(-n3cc(C(=O)O)cn3)nc(O)c21 [Example 439] | 22 nM | 550 nM | 5.3
Cc1ccc2cc(CCn3ncc4nc(-n5cc(C(=O)O)cn5)nc(O)c43)ccc2c1C [Example 129] | 21 nM | 160 nM | 162
CC1(Cn2nc(F)c3nc(-n4cc(C(=O)O)cn4)nc(O)c32)CCCCC1 [Example 470] | 48 nM | 260 nM | 1.7
O=C(O)c1cnn(-c2nc(O)c3c(cnn3CCC3CCOCC3)n2)c1 [Example 153] | 59 nM | 900 nM | 1.5
